{
  "source": "paper PMC9168903",
  "about": "“Crystal Structures of Arabidopsis thaliana GDP-D-Mannose Pyrophosphorylase VITAMIN C DEFECTIVE 1” (Frontiers in Plant Science, 2022)",
  "molecules": {"B1": {"name": "Arabidopsis thaliana GDP-D-mannose pyrophosphorylase VITAMIN C … 1 (enzyme, UniProt O22287 1-361, looked up)", "chain": "MKALILVGGFGTRLRPLTLSFPKPLVDFANKPMILHQIEALKAVGVDEVVLAINYQPEVMLNFLKDFETKLEIKITCSQETEPLGTAGPLALARDKLLDGSGEPFFVLNSDVISEYPLKEMLEFHKSHGGEASIMVTKVDEPSKYGVVVMEESTGRVEKFVEKPKLYVGNKINAGIYLLNPSVLDKIELRPTSIEKETFPKIAAAQGLYAMVLPGFWMDIGQPRDYITGLRLYLDSLRKKSPAKLTSGPHIVGNVLVDETATIGEGCLIGPDVAIGPGCIVESGVRLSRCTVMRGVRIKKHACISSSIIGWHSTVGQWARIENMTILGEDVHVSDEIYSNGGVVLPHKEIKSNILKPEIVM", "notes": "VTC1 (GDP-D-mannose pyrophosphorylase), Arabidopsis thaliana, full-length; recombinant protein stated to have a molecular weight of 41 kDa; also called VTC1; GMPase; source: recombinant, purified (SEC on HiLoad 16/60 Superdex 200); production described previously (Zhao and Liu, 2016)"}},
  "key": {"VTC1ΔC": {"molecular_target": "T1, VTC1ΔC (Arabidopsis thaliana, UniProt O22287)", "T1 construct": "gene CYT1; truncation lacking the C-terminal 139 residues (LβH domain region removed); catalytic domain; recombinant, purified as full-length VTC1", "test": "GMPase assay, malachite green phosphate release after pyrophosphatase", "type": "biochemical", "conditions": "0.2 mM Man-1-P, 0.2 mM GTP, 1 mM MgCl2, 1 mM DTT, 50 mM Tris-HCl pH 7.5, 37 °C, 0.2 μM enzyme"}, "VTC1": {"molecular_target": "T2, VTC1 (Arabidopsis thaliana, UniProt O22287)", "T2 construct": "gene CYT1; full-length recombinant, 41 kDa; dimer, tetramer and aggregate in SEC", "T2 sequence (O22287 1-361)": "B1 chain", "test": "X-ray crystal structure, […] Å", "type": "binding"}, "[1]": {"molecular_target": "the molecule itself", "test": "SEC; HiLoad 16/60 Superdex 200 column; purified recombinant VTC1; three peaks compared with protein standards"}, "[2]": {"molecular_target": "the molecule itself", "test": "crystal structure; product-bound VTC1 (GDP-Man, PPi, citrate), 3.0 Å, space group R32, two dimers in the asymmetric unit, threefold symmetry"}},
  "note": "“And” between values parts separate entries of the source, which are not always exact repeats. Identical values can stand only once.",
  "data": [
    {"molecule": "O=P(O)(O)O[C@H]1O[C@H](CO)[C@@H](O)[C@H](O)[C@@H]1O", "note": "[D-mannose-1-phosphate]", "values": [
      {"measurement": "GMPase assay, malachite green phosphate release after pyrophosphatase", "setting": "VTC1ΔC", "value": "VTC1ΔC retained, but only ca. one third of the GMPase activity"}
    ]},
    {"molecule": "Nc1nc2c(ncn2[C@@H]2O[C@H](COP(=O)(O)OP(=O)(O)O[C@H]3O[C@H](CO)[C@@H](O)[C@H](O)[C@@H]3O)[C@@H](O)[C@H]2O)c(=O)[nH]1", "note": "[GDP-D-mannose]", "values": [
      {"measurement": "X-ray crystal structure, 3.0 Å", "setting": "VTC1; active site of catalytic domain, bound in middle protomer, citrate also bound", "value": "The product GDP-Man binds at the edge of the central β-sheet (Figure 4C)."}
    ]},
    {"molecule": "Nc1nc2c(ncn2[C@@H]2O[C@H](COP(=O)(O)OP(=O)(O)OP(=O)(O)O)[C@@H](O)[C@H]2O)c(=O)[nH]1", "note": "[GTP]", "values": [
      {"measurement": "GMPase assay, malachite green phosphate release after pyrophosphatase", "setting": "VTC1ΔC", "value": "VTC1ΔC retained, but only ca. one third of the GMPase activity"}
    ]},
    {"molecule": "O=P(O)(O)OP(=O)(O)O", "note": "[inorganic pyrophosphate]", "values": [
      {"measurement": "X-ray crystal structure, 3.0 Å", "setting": "VTC1; catalytic domain, β1–η1 loop, bound in inner and outer protomers, same site as citrate", "value": "the inner and outer protomers each bind a PPi"}
    ]},
    {"molecule": "B1", "values": [
      {"measurement": "stoichiometry N", "setting": "[1]", "value": "2 and 4"},
      {"measurement": "stoichiometry N", "setting": "[2]", "value": 12}
    ]}
  ]
}
